Reference: patent US8217005B2 (priority 2006, dated 2012)

What was measured:
[1] = male, Sprague-Dawley, rat, in vivo, 0.5 mg/kg
human μ-opioid receptor = target: T1, human μ-opioid receptor (Homo sapiens, UniProt P35372); assay: biochemical; type: binding
T1 construct: expressed in transfected cells; host or cells: HEK-293 cells

[2] = rat, in vivo

T1 sequence (P35372 whole entry): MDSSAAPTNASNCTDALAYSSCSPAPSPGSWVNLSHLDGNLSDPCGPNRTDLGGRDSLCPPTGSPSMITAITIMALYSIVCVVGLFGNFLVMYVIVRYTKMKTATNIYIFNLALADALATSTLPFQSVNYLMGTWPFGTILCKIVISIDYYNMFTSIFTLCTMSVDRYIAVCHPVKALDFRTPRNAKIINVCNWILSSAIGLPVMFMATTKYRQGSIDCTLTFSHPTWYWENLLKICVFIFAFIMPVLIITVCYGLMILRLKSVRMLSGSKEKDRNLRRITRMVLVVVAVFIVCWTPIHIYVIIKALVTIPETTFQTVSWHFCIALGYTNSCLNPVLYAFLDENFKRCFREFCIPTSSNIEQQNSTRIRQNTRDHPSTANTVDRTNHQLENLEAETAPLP

Structure (SMILES): CN1CC[C@]23c4c5ccc(O)c4O[C@H]2C(=O)CC[C@@]3(O)[C@H]1C5 [oxymorphone]
- Cmax OM following IV dosing [1]: 432 ng/mL

Structure (SMILES): CC(=O)N[C@@H](CCCNC(=N)N)C(=O)NCCN(C)C(=O)Oc1ccc2c3c1OC1C(=O)CCC4[C@@H](C2)N(C)CC[C@]314 (stereo partly drawn) [Example 3, Hydromorphone 3-(N-methyl-N-(2-N′-acetylarginylamino))ethylcarbamate]
- IC50 (human μ-opioid receptor): 1.3 µM

Structure (SMILES): CN(CCN)C(=O)Oc1ccc2c3c1O[C@H]1C(=O)CC[C@@]4(O)[C@@H](C2)[N+](C)(CC2CC2)CC[C@]314.Cl.[Cl-] (stereo partly drawn) [Example 19]
- pharmacokinetic profile (e.g. oral bioavailability), FIG. 1 ([2]; 20 mg/kg): improved pharmacokinetic profile
- Cmax value compared to (R)-N-methylnaltrexone ([2]; po): superior

Structure (SMILES): CN(CCNC(=O)[C@H](CCCNC(=N)N)NC(=O)c1ccc2c(c1)OCO2)C(=O)Oc1ccc2c3c1OC1C(=O)CCC4[C@@H](C2)N(C)CC[C@]314 (stereo partly drawn) [Example 6, Hydromorphone 3-(N-methyl-N-(N′-piperonyl-2-arginylamino))ethylcarbamate]
- IC50 (human μ-opioid receptor): 0.79 µM

Structure (SMILES): C[N@+]1(CC2CC2)CC[C@]23c4c5ccc(O)c4O[C@H]2C(=O)CC[C@@]3(O)[C@H]1C5 [N-methylnaltrexone, (R)—N-methylnaltrexone, reference compound]
- Cmax N-MTX following PO dosing ([2]; 20 mg/kg): 6 ng/mL
- pharmacokinetic profile (e.g. oral bioavailability), FIG. 1 ([2]; 20 mg/kg): poor pharmacokinetic profile

Structure (SMILES): CN(CCNC(=O)[C@@H](N)CCCNC(=N)N)C(=O)Oc1ccc2c3c1OC1C(=O)CCC4[C@@H](C2)N(C)CC[C@]314 (stereo partly drawn) [Example 1, Hydromorphone 3-(N-methyl-N-(2-arginylamino))ethylcarbamate]
- IC50 (human μ-opioid receptor): 2.1 µM

Structure (SMILES): CN(CCNC(=O)[C@@H](N)CCCCN)C(=O)Oc1ccc2c3c1OC1C(=O)CCC4[C@@H](C2)N(C)CC[C@]314 (stereo partly drawn) [Example 7, Hydromorphone 3-(N-methyl-N-(2-lysinylamino))ethylcarbamate]
- IC50 (human μ-opioid receptor): 0.79 µM
